# Assay results published in PMC4127372 (Journal of pharmaceutical and biomedical analysis, 2014).
# Settings: pre-tested baboon plasma following intravenous infusion
smiles,measurement,value
CCCCCCCCCCNCCN[C@@]1(C)C[C@H](O[C@H]2[C@H](Oc3c4cc5cc3Oc3ccc(cc3Cl)[C@@H](O)[C@@H](NC(=O)[C@@H](CC(C)C)NC)C(=O)N[C@@H](CC(N)=O)C(=O)N[C@H]5C(=O)N[C@H]3C(=O)N[C@H](C(=O)N[C@H](C(=O)O)c5cc(O)c(CNCP(=O)(O)O)c(O)c5-c5cc3ccc5O)[C@H](O)c3ccc(c(Cl)c3)O4)O[C@H](CO)[C@@H](O)[C@@H]2O)O[C@@H](C)[C@H]1O [telavancin],lowest concentration of telavancin determined in pre-tested baboon plasma,approximately 200 ng/ml
